Laboratory results reported in BindingDB's records for patent US12398118 (Beijing Tide Pharmaceutical, 2025).

What was measured:
[1] = target: Rho-associated protein kinase 2 (Homo sapiens, UniProt O75116); assay: Biological Assay
Description: Before the assay, the following working solutions as needed were formulated with corresponding reagents according to the instruction of the kinase detection kit: 1×kinase buffer, 5×STK-S2 substrate working solution (1.5 μM) and 5×ATP working solution (1.5 μM), 5×ROCK2 kinase working solution, 4×Streptavidin-XL665 working solution, and 4×STK-Ab-Cryptate 2 detection solution. Then the assay was performed according to the following procedure.A solution of a compound at a concentration of 10000 nM was prepared with the 1×kinase buffer containing 2.5% DMSO. Gradient dilution of the solution of the compound was performed with the kinase buffer containing DMSO, so as to obtain solutions of a test compound at 9 different concentrations. In addition to wells of test compounds, a positive well (containing all the reagents except the compound) and a negative well (containing all the reagents except the test compound and kinase) were set. Except for the control wells (positive and negative wells), a solution of a test compound (4 μL) was added to each of the reaction wells, and a solution of 2.5% DMSO was added to the control wells. Then the substrate ([…], i.e., 2 μL 5×STK-S2 substrate working solution) was added to each of the reaction wells. The 5×ROCK2 kinase working solution (2 μL, containing 1.4 ng ROCK2 kinase) was added to each of the reaction wells except for the negative well, the volume of which was made up with the 1×kinase buffer (2 μL). The 5×ATP working solution (2 μL) was added to each of the reaction wells, and the mixtures were incubated at room temperature for 2 hours. After the kinase reaction was complete, the 4×Streptavidin-XL665 working solution was added to each of the reaction wells, the solutions were mixed, followed by immediate addition of the 4×STK-Ab-Cryptate 2 detection solution (5 μL), and the mixtures were incubated at room temperature for 1 hour.

[2] = target: Rho-associated protein kinase 1 (Homo sapiens, UniProt Q13464); assay: Biological Assay
Rho-associated protein kinase 1, sequence (Q13464 whole entry): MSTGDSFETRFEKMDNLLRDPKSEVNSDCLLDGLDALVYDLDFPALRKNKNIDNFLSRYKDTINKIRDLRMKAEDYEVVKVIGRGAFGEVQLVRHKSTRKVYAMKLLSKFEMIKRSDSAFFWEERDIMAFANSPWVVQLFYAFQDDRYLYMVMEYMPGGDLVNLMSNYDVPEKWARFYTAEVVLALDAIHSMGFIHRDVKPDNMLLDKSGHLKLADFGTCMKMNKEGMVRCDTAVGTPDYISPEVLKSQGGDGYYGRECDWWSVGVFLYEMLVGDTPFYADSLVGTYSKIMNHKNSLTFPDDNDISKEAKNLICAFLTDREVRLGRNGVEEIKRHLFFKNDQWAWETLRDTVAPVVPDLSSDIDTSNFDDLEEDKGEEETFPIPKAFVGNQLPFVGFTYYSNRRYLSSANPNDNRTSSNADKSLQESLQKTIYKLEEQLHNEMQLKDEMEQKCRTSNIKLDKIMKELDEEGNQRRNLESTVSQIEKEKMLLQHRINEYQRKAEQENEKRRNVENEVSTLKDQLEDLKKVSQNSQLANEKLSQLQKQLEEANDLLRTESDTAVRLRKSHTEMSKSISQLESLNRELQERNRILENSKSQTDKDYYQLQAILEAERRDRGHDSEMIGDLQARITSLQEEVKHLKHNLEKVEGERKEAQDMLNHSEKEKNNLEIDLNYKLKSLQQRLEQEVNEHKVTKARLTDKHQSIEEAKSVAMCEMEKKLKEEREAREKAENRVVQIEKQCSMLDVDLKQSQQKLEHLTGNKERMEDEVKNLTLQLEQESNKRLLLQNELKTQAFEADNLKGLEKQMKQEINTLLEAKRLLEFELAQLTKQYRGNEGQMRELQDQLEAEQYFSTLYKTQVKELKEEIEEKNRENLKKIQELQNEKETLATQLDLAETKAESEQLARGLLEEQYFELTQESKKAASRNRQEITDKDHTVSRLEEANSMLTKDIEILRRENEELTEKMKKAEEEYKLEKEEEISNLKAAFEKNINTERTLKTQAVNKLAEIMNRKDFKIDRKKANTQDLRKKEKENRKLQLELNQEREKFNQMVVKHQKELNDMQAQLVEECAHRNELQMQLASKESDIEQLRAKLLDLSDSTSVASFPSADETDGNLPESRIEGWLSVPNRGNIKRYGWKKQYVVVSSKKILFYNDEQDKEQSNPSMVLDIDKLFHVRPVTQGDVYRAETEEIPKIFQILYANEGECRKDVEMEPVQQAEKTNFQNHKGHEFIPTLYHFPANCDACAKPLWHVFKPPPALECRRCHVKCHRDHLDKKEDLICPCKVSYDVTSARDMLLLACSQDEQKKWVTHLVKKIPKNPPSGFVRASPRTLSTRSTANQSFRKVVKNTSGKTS

Rho-associated protein kinase 2, sequence (O75116 whole entry): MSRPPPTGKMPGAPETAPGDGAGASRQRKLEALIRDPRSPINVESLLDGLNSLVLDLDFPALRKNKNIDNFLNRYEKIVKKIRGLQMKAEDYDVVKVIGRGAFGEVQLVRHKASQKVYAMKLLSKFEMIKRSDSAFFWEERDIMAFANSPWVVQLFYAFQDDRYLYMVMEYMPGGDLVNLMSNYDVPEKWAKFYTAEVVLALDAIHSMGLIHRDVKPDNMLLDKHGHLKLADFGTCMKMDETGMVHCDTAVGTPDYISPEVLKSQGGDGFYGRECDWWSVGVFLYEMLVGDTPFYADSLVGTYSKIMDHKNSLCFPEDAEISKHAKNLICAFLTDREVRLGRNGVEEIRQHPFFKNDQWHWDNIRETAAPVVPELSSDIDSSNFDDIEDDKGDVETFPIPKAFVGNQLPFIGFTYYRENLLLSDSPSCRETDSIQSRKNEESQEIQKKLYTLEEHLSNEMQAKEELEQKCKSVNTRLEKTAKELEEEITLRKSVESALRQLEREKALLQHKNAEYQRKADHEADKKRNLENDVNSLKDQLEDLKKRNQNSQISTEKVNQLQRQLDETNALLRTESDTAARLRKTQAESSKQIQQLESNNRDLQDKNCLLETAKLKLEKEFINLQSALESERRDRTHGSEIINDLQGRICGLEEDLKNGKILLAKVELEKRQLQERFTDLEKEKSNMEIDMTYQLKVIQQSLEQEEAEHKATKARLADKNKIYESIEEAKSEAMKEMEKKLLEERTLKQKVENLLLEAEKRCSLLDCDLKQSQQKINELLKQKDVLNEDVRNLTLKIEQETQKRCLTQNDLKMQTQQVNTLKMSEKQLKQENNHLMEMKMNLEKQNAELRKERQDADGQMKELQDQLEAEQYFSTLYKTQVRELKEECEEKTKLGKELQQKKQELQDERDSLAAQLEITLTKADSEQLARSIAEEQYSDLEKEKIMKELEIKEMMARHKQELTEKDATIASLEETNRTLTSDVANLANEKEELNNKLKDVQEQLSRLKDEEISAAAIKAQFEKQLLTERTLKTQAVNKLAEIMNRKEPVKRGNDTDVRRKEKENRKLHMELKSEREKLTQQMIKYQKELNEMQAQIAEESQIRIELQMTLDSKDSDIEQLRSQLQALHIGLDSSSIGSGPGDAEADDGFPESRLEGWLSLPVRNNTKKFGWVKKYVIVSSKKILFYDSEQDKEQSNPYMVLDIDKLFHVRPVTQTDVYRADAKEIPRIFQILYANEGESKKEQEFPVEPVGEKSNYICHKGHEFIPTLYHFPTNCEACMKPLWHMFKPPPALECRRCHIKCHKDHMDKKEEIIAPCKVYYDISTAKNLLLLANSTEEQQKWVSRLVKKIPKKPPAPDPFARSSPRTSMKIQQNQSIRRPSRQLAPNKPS

O=C(OC1CCC(F)(F)CC1)N1CCc2cc(-c3ncc(F)c(Nc4ccc5c(=O)[nH]ccc5c4)n3)ccc2C1 [US12398118, Compound C35]
IC50 [1]: 93 nM | IC50 [2]: > 10000 nM

O=C(OCC(F)(F)F)N1Cc2ccc(-c3ncc(F)c(Nc4ccc5c(=O)[nH]ccc5c4)n3)cc2C1 [US12398118, Compound C72]
IC50 [1]: 24 nM | IC50 [2]: > 10000 nM

CC(OC(=O)N1CCc2sc(-c3ncc(F)c(Nc4ccc5c(c4)CCNC5=O)n3)cc2C1)C(F)(F)F (stereo not drawn) [US12398118, Compound C43]
IC50 [1]: 71 nM

CC(C)(C)OC(=O)N1CCc2sc(-c3ncc(F)c(Nc4ccc5c(N)nccc5c4)n3)cc2C1 [US12398118, Compound C45]
IC50 [1]: 491 nM | IC50 [2]: > 10000 nM

O=C1NCCc2cc(Nc3nc(-c4cc5c(s4)CCN(C(=O)OCC(F)(F)F)C5)ncc3F)ccc21 [US12398118, Compound C75]
IC50 [1]: 37 nM | IC50 [2]: > 10000 nM

CC(C)(C)CC(=O)N1CCc2sc(-c3ncc(F)c(Nc4ccc5c(=O)[nH]ccc5c4)n3)cc2C1 [US12398118, Compound C52]
IC50 [1]: 28 nM | IC50 [2]: > 10000 nM

CC(C)(C)OC(=O)N1CCc2sc(-c3ncc(F)c(Nc4ccc5c(=O)[nH]ccc5c4)n3)cc2C1 [US12398118, Compound C28]
IC50 [1]: 6 nM | IC50 [2]: > 10000 nM
